Measured values taken from patent publication USRE42152E1, “Aromatic-linked polyamine macrocyclic compounds with anti-HIV activity” (Genzyme Corporation, priority 1992, dated 2011).
Converted amounts (≈) assume the structure as drawn. Like-named read-outs stand apart in the source and are kept apart here.

What was measured:
[1] = system: HIV-1 strain IIIb; experiment: Time-of-addition experiment, MT4 cells infected with HIV-1 IIIb, p24 antigen; assay type: cell-based; settings: HIV-1 IIIb at high multiplicity, p24 at 29 hours after infection
Method: To pinpoint the stage at which the compounds interact with the HIV replicative cycle, a time-of-addition experiment was carried out on MT4 cells infected with HIV-1 strain IIIb at high virus multiplicity to ensure that the virus replicative steps would be synchronised in the whole cell populations. Test compounds wife added 1, 2, 3, . . . 22, 23, 24 hours after infection, and vital p24 antigen production determined 29 hours after infection.
Depending on the stage at which compounds interact and the need for intracellular metabolism, addition of the compounds could be delayed for n hours without loss of activity.

[2] = system: MT-4 cells; experiment: Cytotoxicity by MTT method in MT-4 cells; assay type: cell-based
[3] = system: Jurkat cells; experiment: Growth of exponentially growing cells (cell numbers); assay type: cell-based
[4] = system: HIV-1, BaL; experiment: microbe, parasite or virus in culture; assay type: cell-based
Method: Mononuclear cells were isolated from healthy, HIV-negative donors using Ficoll density separation. Cells (4×10^6/ml) were incubated for 5 days in 48 well plates (Costar) in monocyte medium consisting of RPMII640, supplemented with 20% ECS and 10% human serum. On day 5 non-adherent cells were washed out four times with warm PBS containing 2% human serum.
The monocytotropic strain of HIV-1, BaL, was used for the infection of these monocyte preparations (Pemo et al, 1 Exp Meal, 169, 933, 1989).
Adherent monocytes were exposed to […] of a 1:30 dilution of HIV-1, BaL for 30 minutes subsequently, monocyte medium was added to 1 ml/well. Adsorption was allowed for 24 hours at 37° C. Then, the wells were washed twice in order to remove excess virus and were cultivated in the presence of different drug concentrations. Thus, test compounds were added after adsorption. Every 3 to 4 days post infection the supernatant of the infected cultures was removed and replaced by fresh medium containing the test compound at the particular concentration. The concentration of viral p24 antigen was determined as described above.
(§1) IC50 and IC90 values were calculated by comparing the p24 antigen concentrations in supernatent of treated, infected cells and uncreated, infected cells at days 11 and 14 post infection.

[5] = system: U937 cell line
[6] = system: HIV-1 (HTLV-IIIB); experiment: microbe, parasite or virus in culture; assay type: cell-based; settings: MT-4 cells, 100 CCID50, 5 days, MTT
[7] = system: MT4 cells
[8] = system: HIV-1, strain IIIb; experiment: microbe, parasite or virus in culture; assay type: cell-based
Method: Adsorption was allowed for 2 hours at 37° C. […] Test compound was added after stimulation and virus adsorption.
as §1

[9] = system: MOLT4 cells
[10] = Cytotoxicity by MTT method in MT-4 cells; assay type: cell-based; settings: human
[11] = system: low-passage primary clinical isolates of HIV-1 (K31, D370, K6/2); settings: primary T4 cells; isolates K31 Zaire, D370 California, K6/2 Germany
Method: Primary T4 lymphocytes were purified from human spleens obtained from healthy donors by using a commercial kit (“Lympho-Kwik”) which combines reaction of cells with specific monoclonal antibodies and density gradient centrifugation to separate the cells. […] Cells were stimulated with 2 μg/ml PHA for 24 hours. Then they were spun down and infected with HIV-1, strain IIIb, by suspending the cells 10-fold concentrated in virus solution. Adsorption was allowed for 2 hours at 37° C. The inoculum was removed by centrifugation and the cells were re-suspended at their original concentration in fresh culture medium containing IL-2 (40 IE/ml). Test compound was added after stimulation and virus adsorption. Every 3 to 4 days post infection half of the supernatant of the infected cultures was removed and replaced by fresh medium containing the test compound at the particular concentration, The concentration of vital p24 antigen was determined in the supernatent by means of a commercial ELISA kit (Coulter) and served as a parameter for virus production.

[12] = system: HUT78 cells; settings: concentrations below 300 μg/ml; cell numbers 2, 3 and 4 days after seeding
[13] = system: HIV-2 (LAV-2 ROD); experiment: MTT anti-viral screen, MT-4 cells challenged with HIV-2; assay type: cell-based; settings: Human immunodeficiency virus 2, MT4, 120 h, read-out: IC50 HIV-2 (ROD)
[14] = system: HIV uncoating (or fusion); experiment: Sensitivity of viral RNA from freshly infected MT4 cells to RNase degradation (uncoating); assay type: cell-based; settings: radiolabelled viral particles, RNA harvested 4 hours after infection
From the text: It was reasoned that if tincoating (fusion) was hampered, the viral capsid (or envelope) proteins would remain associated with the viral RNA genome and thus the RNA should be protected against RNase attack.

[15] = system: gp120/41 mediated fusion; settings: HIV-1 IIIb infected HUT78 cells with MOLT4 cells
From the text: Syncytium formation between chronically infected cells and uninfected cells reflects the gp120/41 mediated fusion process of vital entry.

[16] = system: HIV-1 IIIb, RF, HE and NDK strains; experiment: microbe, parasite or virus in culture; settings: Human immunodeficiency virus 1, IIIB, MT4, read-out: IC50 against IIIb, RF, HE and NDK strains
Method: The compounds of the invention were tested in a screen by the MTT method (I Vixol Methods […] [1988]). MT-4 cells (2.5×10^4/well) were challenged with HIV-1 (HTLV-IIIB) or HIV-2 (LAV-2 ROD) at a concentration of 100 CCID50 and incubated in the presence of various concentrations of the test compounds, which were added immediately after challenge with the virus. After 5 days culture at 37° C. in a CO2 incubator, the number of viable cells was assessed by the MTT (tetrazolium) method. […] The potential therapeutic usefulness was assessed by calculating a Selectivity Index (SI) corresponding to the ratio of CC50 to IC50.

[17] = Monocytes, HIV-1 BaL, p24, day 11 post infection
[18] = Monocytes, HIV-1 BaL, p24, day 14 post infection
[19] = Lymphocytes, HIV-1 IIIb, p24, day 11 post infection
[20] = Lymphocytes, HIV-1 IIIb, p24, day 14 post infection
[21] = concentrations below 300 μg/ml, cell numbers 2, 3 and 4 days after seeding

Cc1cn([C@H]2C[C@H](N=[N+]=[N-])[C@@H](CO)O2)c(=O)[nH]c1=O [AZT, reference compound]
n, hours addition could be delayed after infection without loss of activity [1]: ~4 h
CC50 (HIV-1 (IIIB)) [2]: >1000 ng/mL
TC50 ([3]; Jurkat): 184000 ng/mL (≈ 689000 nM)
IC50 day 11 [4, 17]: 1 ng/mL (≈ 3.74 nM)
IC90 day 11 [4, 17]: 1.5 ng/mL (≈ 5.61 nM)
IC50 day 14 [4, 18]: 1 ng/mL (≈ 3.74 nM)
IC90 day 14 [4, 18]: 1.7 ng/mL (≈ 6.36 nM)
TC50 ([5]; U937): 5000 ng/mL (≈ 18700 nM)
IC50 HIV-1 (IIIB) [6]: <8 ng/mL
TC50 ([7]; MT4): 23000 ng/mL (≈ 86100 nM)
IC50 day 11 [8, 19]: 0.45 ng/mL (≈ 1.68 nM)
IC90 day 11 [8, 19]: 2.2 ng/mL (≈ 8.23 nM)
IC50 day 14 [8, 20]: 0.43 ng/mL (≈ 1.61 nM)
IC90 day 14 [8, 20]: 1.1 ng/mL (≈ 4.12 nM)
TC50 ([9]; MOLT4): 37000 ng/mL (≈ 138000 nM)

c1cc(CN2CCCNCCNCCCNCC2)ccc1CN1CCCNCCNCCCNCC1 [Compound B, 1,1′-[1,4-phenylenebis(methylene)]bis-1,4,8,11-tetraazacyclotetradecane]
CC50 at 5 days ([10]; CC50 (HIV-1 (IIIB))): > 500000 ng/mL
CC50 at 5 days ([10]; CC50 (HIV-2 (ROD))): > 500000 ng/mL
inhibition of cell growth [3, 21]: did not inhibit growth
inhibition of viral replication [11]: strong inhibitor
IC90 ([4]; Human immunodeficiency virus 1, BAL, Monocyte, primary monocytes, stated for both primary cell types, read-out: IC90 values): 1 to 2 ng/mL (≈ 1.99 to 3.98 nM)
IC50 ([4]; Human immunodeficiency virus 1, Monocyte, 264 h, Monocytes, HIV-1 BaL, p24, day 11 post infection, read-out: IC50 day 11): < 1 ng/mL
IC90 ([4]; Human immunodeficiency virus 1, Monocyte, 264 h, Monocytes, HIV-1 BaL, p24, day 11 post infection, read-out: IC90 day 11): 1.9 ng/mL (≈ 3.78 nM)
IC50 ([4]; Human immunodeficiency virus 1, Monocyte, 336 h, Monocytes, HIV-1 BaL, p24, day 14 post infection, read-out: IC50 day 14): 1.1 ng/mL (≈ 2.19 nM)
IC90 ([4]; Human immunodeficiency virus 1, Monocyte, 336 h, Monocytes, HIV-1 BaL, p24, day 14 post infection, read-out: IC90 day 14): 2.1 ng/mL (≈ 4.18 nM)
inhibition of cell growth [12]: did not inhibit growth
inhibition of cell growth [5, 21]: did not inhibit growth
IC50 [13]: < 10 ng/mL
resistance of viral RNA to degradation by RNase [14]: showed resistance to degradation by RNaseA
IC50 ([6]; Human immunodeficiency virus 1, IIIB, MT4, 120 h, read-out: IC50 HIV-1 (IIIB)): 6 ng/mL (≈ 11.9 nM)
concentrations required for inhibition of fusion (syncytium formation) [15]: approximately 1 μg/ml
inhibition of cell growth [7, 21]: did not inhibit growth
IC50 [16]: 2 to 5 ng/mL (≈ 3.98 to 9.94 nM)
IC90 ([8]; Human immunodeficiency virus 1, IIIB, Lymphocyte, primary T4 lymphocytes, stated for both primary cell types, read-out: IC90 values): 1 to 2 ng/mL (≈ 1.99 to 3.98 nM)
IC50 ([8]; Human immunodeficiency virus 1, Lymphocyte, 264 h, Lymphocytes, HIV-1 IIIb, p24, day 11 post infection, read-out: IC50 day 11): < 1 ng/mL
IC90 ([8]; Human immunodeficiency virus 1, Lymphocyte, 264 h, Lymphocytes, HIV-1 IIIb, p24, day 11 post infection, read-out: IC90 day 11): < 1 ng/mL
IC50 ([8]; Human immunodeficiency virus 1, Lymphocyte, 336 h, Lymphocytes, HIV-1 IIIb, p24, day 14 post infection, read-out: IC50 day 14): < 1 ng/mL
IC90 ([8]; Human immunodeficiency virus 1, Lymphocyte, 336 h, Lymphocytes, HIV-1 IIIb, p24, day 14 post infection, read-out: IC90 day 14): 1 ng/mL (≈ 1.99 nM)
inhibition of cell growth [9, 21]: did not inhibit growth

CC(C)=CCN1Cc2cc(Cl)cc3[nH]c(=S)n(c23)C[C@@H]1C [Compound R82913]
n, hours addition could be delayed after infection without loss of activity [1]: 6 h
resistance of viral RNA to degradation by RNase [14]: did not show this increased resistance

O=c1[nH]cnc2c1ncn2[C@H]1CC[C@@H](CO)O1 [DDI]
resistance of viral RNA to degradation by RNase [14]: did not show this increased resistance

CC(C)(C)NC(=O)[C@@H]1C[C@@H]2CCCC[C@@H]2CN1C[C@@H](O)[C@H](Cc1ccccc1)NC(=O)[C@H](CC(N)=O)NC(=O)c1ccc2ccccc2n1 [Ro31-8959]
n, hours addition could be delayed after infection without loss of activity [1]: 12 h
resistance of viral RNA to degradation by RNase [14]: did not show this increased resistance
